Test results from US20100298141A1, “SUBSTITUTED PYRIDINE N-OXIDE HERBICIDES” (E. I. DU PONT DE NEMOURS AND COMPANY, priority 2007, published 2010).

Legend:
woolly cupgrass = experiment: Test C pre-/postemergence test; assay type: in vivo, Eriochloa villosa
How it was run: (§1)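 Compounds in a non-phytotoxic solvent with surfactant applied preemergence to seeded pots and, at the same time, postemergence to plants 2–18 cm tall (1- to 4-leaf stage). Paddy tests: pots flooded to 3 cm, compound applied into the water, depth held throughout.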

barnyardgrass = experiment: Test C flooded paddy test; assay type: in vivo, Echinochloa crus-galli; conditions: Flood
How it was run: (§2)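 Pots were flooded to 3 cm above the soil surface at treatment, compound applied directly to the paddy water, and that depth held throughout. Plants were kept in a greenhouse for 13 to 15 days, then visually rated against untreated controls.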

cocklebur = experiment: Test C pre-/postemergence test; assay type: in vivo, Xanthium strumarium
How it was run: as §1

blackgrass = experiment: Test C pre-/postemergence test; assay type: in vivo, Alopecurus myosuroides
How it was run: as §1

velvetleaf [1] = experiment: Test A pre-/postemergence greenhouse test; assay type: in vivo, Abutilon theophrasti; conditions: for Velvetleaf plant response rating: 0 to 100 scale
How it was run: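 Visual injury ratings against untreated controls, taken roughly ten days after treatment in greenhouse. Plants were sprayed postemergence at one- to two-leaf stage (2–10 cm tall); at the same time, seeded loam/sand soil received a directed preemergence spray. Formulation: non-phytotoxic solvent mixture with surfactant.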

green foxtail = experiment: Test C pre-/postemergence test; assay type: in vivo, Setaria viridis
How it was run: as §1

johnsongrass = experiment: Test C pre-/postemergence test; assay type: in vivo, Sorghum halepense
How it was run: as §1

soybean = experiment: Test C pre-/postemergence test; assay type: in vivo, Glycine max
How it was run: as §1

catchweed bedstraw = experiment: Test C pre-/postemergence test; assay type: in vivo, Galium aparine
How it was run: as §1

duck salad = experiment: Test C flooded paddy test; assay type: in vivo, Heteranthera limosa; conditions: Flood
How it was run: as §2

downy brome = experiment: Test C pre-/postemergence test; assay type: in vivo, Bromus tectorum
How it was run: as §1

giant foxtail = experiment: Test C pre-/postemergence test; assay type: in vivo, Setaria faberii
How it was run: as §1

Italian ryegrass = experiment: Test C pre-/postemergence test; assay type: in vivo, Lolium multiflorum
How it was run: as §1

velvetleaf [2] = experiment: Test C pre-/postemergence test; assay type: in vivo, Abutilon theophrasti
How it was run: as §1

wild oat = experiment: Test C pre-/postemergence test; assay type: in vivo, Avena fatua
How it was run: as §1

morningglory = experiment: Test C pre-/postemergence test; assay type: in vivo, Ipomoea coccinea
How it was run: as §1

corn = experiment: Test C pre-/postemergence test; assay type: in vivo, Zea mays
How it was run: as §1

[3] = 62 g ai/ha, Preemergence, scale 0 to 100
[4] = 125 g ai/ha, preemergence, scale 0 (no effect) to 100 (complete control)
[5] = Preemergence, 31 g ai/ha, scale 0 to 100 (0 no effect, 100 complete control)
[6] = preemergence, 250 g ai/ha, scale 0 (no effect) to 100 (complete control)
[7] = 31 g ai/ha, scale 0 to 100 (0 no effect, 100 complete control)
[8] = 62 g ai/ha, scale 0 to 100 (0 no effect, 100 complete control)
[9] = 125 g ai/ha, scale 0 to 100, 0 no effect, 100 complete control, 13 to 15 days
[10] = 250 g ai/ha, scale 0 to 100, 0 no effect, 100 complete control, 13 to 15 days

CC(C)c1cc[n+]([O-])c([S+]([O-])Cc2c(C(F)(F)F)nn(C)c2OC(F)F)c1 (centres unmarked) [Compound 109]
70: Plant response rating, Cupgrass, Woolly (woolly cupgrass; [5]) | Blackgrass plant response rating (blackgrass; [3]) | Oat, Wild plant response rating (wild oat; [3]) | Corn plant response rating (corn; [3])
65: Plant response rating, Ducksalad (duck salad; [10])
85: Plant response rating, Johnsongrass (johnsongrass; [5]) | Soybean plant response rating (soybean; [4])
50: Velvetleaf plant response rating (velvetleaf [1]; Preemergence, 125 g ai/ha, 0 no effect, 100 complete control) | Plant response rating, Foxtail, Green (green foxtail; [5]) | Soybean plant response rating (soybean; [3]) | Plant response rating, Oat, Wild (wild oat; [5]) | Plant response rating, Corn (corn; [5])
90: Galium plant response rating (catchweed bedstraw; [3]) | Oat, Wild plant response rating (wild oat; [4])
98: Cupgrass, Woolly plant response rating (woolly cupgrass; [4]) | Cupgrass, Woolly plant response rating (woolly cupgrass; [6]) | Velvetleaf plant response rating (velvetleaf [2]; [4]) | Oat, Wild plant response rating (wild oat; [6]) | Corn plant response rating (corn; [6])
45: Plant response rating, Soybean (soybean; [5]) | Plant response rating, Ducksalad (duck salad; [9])
10: Plant response rating, Velvetleaf (velvetleaf [2]; [5])
40: Plant response rating, Blackgrass (blackgrass; [5]) | Plant response rating, Ducksalad (duck salad; [8]) | Bromegrass, Downy plant response rating (downy brome; [3]) | Plant response rating, Bromegrass, Downy (downy brome; [5])
80: Blackgrass plant response rating (blackgrass; [4]) | Blackgrass plant response rating (blackgrass; [6]) | Velvetleaf plant response rating (velvetleaf [1]; Postemergence, 500 g ai/ha, 0 is no effect, 100 is complete control) | Velvetleaf plant response rating (velvetleaf [2]; [3]) | Plant response rating, Morningglory (morningglory; [5])
95: Cupgrass, Woolly plant response rating (woolly cupgrass; [3]) | Foxtail, Green plant response rating (green foxtail; [3]) | Soybean plant response rating (soybean; [6]) | Bromegrass, Downy plant response rating (downy brome; [4]) | Corn plant response rating (corn; [4])
100: Velvetleaf plant response rating (velvetleaf [1]; Preemergence, 500 g ai/ha, 0 no effect, 100 complete control) | Foxtail, Green plant response rating (green foxtail; [4]) | Foxtail, Green plant response rating (green foxtail; [6]) | Johnsongrass plant response rating (johnsongrass; [3]) | Johnsongrass plant response rating (johnsongrass; [4]) | Johnsongrass plant response rating (johnsongrass; [6]) | Galium plant response rating (catchweed bedstraw; [4]) | Galium plant response rating (catchweed bedstraw; [6]) | Bromegrass, Downy plant response rating (downy brome; [6]) | Foxtail, Giant plant response rating (giant foxtail; [3]) | Foxtail, Giant plant response rating (giant foxtail; [4]) | Plant response rating, Foxtail, Giant (giant foxtail; [5]) | Foxtail, Giant plant response rating (giant foxtail; [6]) | Velvetleaf plant response rating (velvetleaf [2]; [6]) | Morningglory plant response rating (morningglory; [3]) | Morningglory plant response rating (morningglory; [4]) | Morningglory plant response rating (morningglory; [6])
20: Plant response rating, Barnyardgrass (barnyardgrass; [8]) | Plant response rating, Barnyardgrass (barnyardgrass; [9]) | Plant response rating, Barnyardgrass (barnyardgrass; [10])
60: Cocklebur plant response rating (cocklebur; [6]) | Plant response rating, Velvetleaf (velvetleaf [1]; Postemergence, 125 g ai/ha, 0 to 100 scale where 0 is no effect and 100 is complete control) | Plant response rating, Galium (catchweed bedstraw; [5])
0: Plant response rating, Barnyardgrass (barnyardgrass; [7]) | Cocklebur plant response rating (cocklebur; [3]) | Cocklebur plant response rating (cocklebur; [4]) | Plant response rating, Cocklebur (cocklebur; [5]) | Plant response rating, Ducksalad (duck salad; [7]) | Ryegrass, Italian plant response rating (Italian ryegrass; [3]) | Ryegrass, Italian plant response rating (Italian ryegrass; [4]) | Plant response rating, Ryegrass, Italian (Italian ryegrass; [5]) | Ryegrass, Italian plant response rating (Italian ryegrass; [6])
